Series [1] deals with thymidine phosphorylase. Kind of series: Half life of compound in thymidine phosphorylase buffer at 300 uM by HPLC analysis. The class given is physicochemical.
Series [2] has as its target T1, Solute carrier family 15 member 1 (Homo sapiens, UniProt P46059).
T1 sequence (P46059 whole entry): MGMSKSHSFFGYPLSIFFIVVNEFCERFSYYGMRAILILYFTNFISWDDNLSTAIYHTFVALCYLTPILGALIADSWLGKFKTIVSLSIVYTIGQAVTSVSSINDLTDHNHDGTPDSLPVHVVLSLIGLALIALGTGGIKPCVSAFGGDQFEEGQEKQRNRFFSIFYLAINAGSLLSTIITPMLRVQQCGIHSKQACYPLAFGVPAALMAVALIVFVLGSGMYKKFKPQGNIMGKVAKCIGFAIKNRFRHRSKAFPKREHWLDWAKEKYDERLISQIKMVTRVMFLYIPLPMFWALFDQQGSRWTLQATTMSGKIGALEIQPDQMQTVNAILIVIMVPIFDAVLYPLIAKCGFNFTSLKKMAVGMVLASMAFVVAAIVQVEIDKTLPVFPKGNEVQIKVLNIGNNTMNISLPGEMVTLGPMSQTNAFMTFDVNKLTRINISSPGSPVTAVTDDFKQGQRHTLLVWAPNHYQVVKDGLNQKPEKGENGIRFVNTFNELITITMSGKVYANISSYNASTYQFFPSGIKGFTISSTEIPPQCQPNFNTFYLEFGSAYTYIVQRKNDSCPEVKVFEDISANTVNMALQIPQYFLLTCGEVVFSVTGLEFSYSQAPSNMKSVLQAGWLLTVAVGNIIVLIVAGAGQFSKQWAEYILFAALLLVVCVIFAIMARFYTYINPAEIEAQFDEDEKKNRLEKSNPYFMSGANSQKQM
Kind of series: Substrate activity at PEPT1 (unknown origin) expressed in MDCK cells assessed as PEPT1 mediated drug uptake at 0.5 mM incubated for 10 mins by HPLC analysis. Format: ADME, cell-based. Conditions: 500 µM.

The nature of series [3]: AUC (0 to t) in NOD SCID nude mouse tumour xenografted with ZR-75-1 cells assessed as floxuridine; 5-fluoro-2-deoxyuridine AUC at 90 mg/kg, iv measured up to 24 hrs by HPLC-MS/MS analysis. The note with it: in vivo. The class given is ADME, organism-based, Neoplasm.
A short description of series [4]: Half life of compound in PBS buffer at pH 7.4 at 200 uM by HPLC analysis. The class given is physicochemical.
A short description of series [5]: Half life of compound in human ZR-75-1 cell homogenate. The class given is ADME, tissue-based.
Series [6] is described as follows: Toxicity in NOD SCID nude mouse xenografted with human ZR-75-1 cells assessed as body weight at 90 mg/kg, iv for 20 days (reference value: 29.2 +/- 2.5g). Format: organism-based. Conditions: in vivo, 480 h, time 20 day. A general note: Xenograft models place foreign cells or tissue in a host animal.
Series [7] is described as follows: Half life of compound in human MDA-MB-231 cell homogenate. The class given is ADME, tissue-based.
Series [8] in a line: Half life of compound in human MIA PaCa-2 cell homogenate. The class given is ADME, tissue-based.
In series [9] the target is T1, Solute carrier family 15 member 1. Kind of series: Substrate activity at PEPT1 (unknown origin) expressed in MDCK cells assessed as inhibition of gly-sar uptake incubated for 10 mins by HPLC/MS/MS analysis. Format: cell-based.

Each structure is given as a SMILES string. Where only a bound is given, the exact number is not on record here.

The half-life is how long it takes for the measured level to halve. As usually defined, the IC50 is the concentration that inhibits the measured activity by half.

The compound `N[C@@H](CC(=O)OC[C@H]1O[C@@H](n2cc(F)c(=O)[nH]c2=O)C[C@@H]1O)C(=O)O` gave a half-life at 300 µM in series [1] of 299 min. For the same compound, the Drug uptake in series [2] is less than 0.04 nmol/mg/min. In series [3], the AUCt was found to be 4600.1 ng·h/g. This compound also gave a half-life at 200 µM in series [4] of 286 min. Also, the half-life in series [5] amounted to 13.4 min; in series [7], 11.1 min; in series [8] it was 16.4 min. Also, the Activity in [6] worked out at 26.8 g. The 50% inhibitory concentration (IC50) in series [9] is 10.2 mM.

The record behind these values is ChEMBL document CHEMBL4665787, “Bifunctional and Unusual Amino Acid β- or γ-Ester Prodrugs of Nucleoside Analogues for Improved Affinity to ATB and Enhanced Metabolic Stability: An Application to Floxuridine” (J Med Chem, 2020).
